Two compounds from patent publication US7579325B2, “Drugs containing reduced of vitamin B2” (Eisai R & D Management Co., Ltd., priority 2001, dated 2009) can be followed below.

Experiment [1] in a line: Effect on endotoxin shock model (LPS, mouse survival). It counts as in vivo, mice. Conditions: for survival number / survival rate %: male ICR mice, 10 per group, 4 days after administration. As for the experimental part: (§1) Riboflavin sodium phosphate (FMN-Na, JP grade) and leucoflavin sodium phosphate (FMN-H2) prepared in Example 1 were used.
Male mice (Slc: ICR, 6-week old) (10 mice per each test group) was administered intraperitoneally with lipopolysaccharide from E. coli serum type 0111-B4 (Sigma; abbreviated as “LPS” hereinbelow) at a dose of 15 mg/kg.
Six hours after the administration, each of riboflavin sodium phosphate (dosage: […] in dosage volumes of 0.25, 0.5 and 1 ml, respectively) and leucoflavin phosphate (dosage: 2.5, 5 and 10 mg/kg in dosage volumes of 0.25, 0.5 and 1 ml, respectively) which had been dissolved in physiological saline and sterilized by filtration was administered intraperitoneally. The survival rate was determined 4 days after the administration. In the control group, 1.0 ml of physiological saline was administered intraperitoneally instead of the drugs. The determination of the medicinal efficacy was conducted by χ^2 test.

Experiment [2] deals with Staphylococcus aureus BO-72 strain. Briefly: Effect on Staphylococcus aureus-infected model (mouse survival). It counts as in vivo. Conditions: for survival number / survival rate %: male ICR mice, 10 per group, 10 days after inoculation. As for the experimental part:
as §1
Male mice (Slc: ICR, 8-week old) (10 mice per each test group) was administered intraperitoneally with each of riboflavin sodium phosphate (dosage: 25, 50 and 100 mg/kg in dosage volumes of 0.25, 0.5 and 1 ml, respectively) and leucoflavin phosphate (dosage: 2.5, 5 and 10 mg/kg in dosage volumes of 0.25, 0.5 and 1 ml, respectively) which had been dissolved in physiological saline and sterilized by filtration. Twenty-four hours after the administration, Staphylococcus aureus BO-72 strain was administered intravenously at a dose of 8.7×10^7 CFU/mouse (suspended in 0.2 ml of physiological saline), and the survival rate was determined 10 days after the inoculation. In the control group, 1.0 ml of physiological saline was administered intraperitoneally instead of the drugs. The determination of the medicinal efficacy was conducted by χ^2 test.

Experiment [3] has as its system E. coli E01292 strain. The experiment is described as follows: Effect on E. coli-infected model (mouse survival). It counts as in vivo. To be noted: for survival number / survival rate %: male ICR mice, 10 per group, 4 days after inoculation. The method, then: Twelve mg of riboflavin sodium phosphate (FMN-Na, JP grade) was dissolved in 40 ml of physiological saline and then added and mixed with 480 mg of sodium hydrosulfite to produce leucoflavin phosphate (FMN-H2).
Male mice (Slc: ICR, 8-week old) (10 mice per each test group) was administered intraperitoneally with each of riboflavin sodium phosphate (dosage: 12.5, 25, 50 and 100 mg/kg in dosage volumes of 0.125, 0.25, 0.5 and 1 ml, respectively) and leucoflavin phosphate (dosage: 1.25, 2.5, 5 and 10 mg/kg in dosage volumes of 0.125, 0.25, 0.5 and 1 ml, respectively) which had been dissolved in physiological saline and sterilized by filtration. Twenty-four hours after the administration, E. coli E01292 strain was inoculated subcutaneously at a dose of 5.3×10^7 CFU/mouse (suspended in 0.2 ml of physiological saline), and the survival rate was determined 4 days after the inoculation. In the control group, 1.0 ml of physiological saline was administered intraperitoneally instead of the drugs. The determination of the medicinal efficacy was conducted by χ^2 test.

[4] abbreviates: 5 mg/kg i.p. 6 h after LPS 15 mg/kg i.p.
Setting [5] is: 10 mg/kg i.p. 6 h after LPS 15 mg/kg i.p.
[6] abbreviates: 20 mg/kg i.p. 6 h after LPS 15 mg/kg i.p.
[7] abbreviates: 25 mg/kg i.p. 24 h before i.v. S. aureus.
[8] abbreviates: 50 mg/kg i.p. 24 h before i.v. S. aureus.
Setting [9] is: 100 mg/kg i.p. 24 h before i.v. S. aureus.
Where [10] appears, read: 12.5 mg/kg i.p. 24 h before s.c. E. coli inoculation.
The mark [11] stands for this setting: 25 mg/kg i.p. 24 h before s.c. E. coli inoculation.
Setting [12] is: 50 mg/kg i.p. 24 h before s.c. E. coli inoculation.
Where [13] appears, read: 100 mg/kg i.p. 24 h before s.c. E. coli inoculation.
The mark [14] stands for this setting: 2.5 mg/kg i.p. 6 h after LPS 15 mg/kg i.p.
Where [15] appears, read: 2.5 mg/kg i.p. 24 h before i.v. S. aureus.
Setting [16] is: 5 mg/kg i.p. 24 h before i.v. S. aureus.
The mark [17] stands for this setting: 10 mg/kg i.p. 24 h before i.v. S. aureus.
[18] abbreviates: 1.25 mg/kg i.p. 24 h before s.c. E. coli inoculation.
Where [19] appears, read: 2.5 mg/kg i.p. 24 h before s.c. E. coli inoculation.
Where [20] appears, read: 5 mg/kg i.p. 24 h before s.c. E. coli inoculation.
Setting [21] is: 10 mg/kg i.p. 24 h before s.c. E. coli inoculation.

Turning to `Cc1cc2nc3c(=O)[nH]c(=O)nc-3n(C[C@H](O)[C@H](O)[C@H](O)COP(=O)(O)O)c2cc1C` [VB2Na, riboflavin sodium phosphate, reference compound], the survival number worked out at 3 in experiment [1] (setting [4]); 4 in experiment [1] (setting [5]); 7 in experiment [1] (setting [6]); 2 in experiment [2] (setting [7]); 4 in experiment [2] (setting [8]); 7 in experiment [2] (setting [9]). The survival number in experiment [3] (setting [10]) was 1; in experiment [3] (setting [11]), 3; in experiment [3] (setting [12]) it was 5; in experiment [3] (setting [13]), 9. In addition, the survival rate % was determined as 30% in experiment [1] (setting [4]); 40% in experiment [1] (setting [5]); 70% in experiment [1] (setting [6]); 20% in experiment [2] (setting [7]); 40% in experiment [2] (setting [8]); 70% in experiment [2] (setting [9]). Further, the survival rate % in experiment [3] (setting [10]) worked out at 10%; in experiment [3] (setting [11]), 30%; in experiment [3] (setting [12]), 50%; in experiment [3] (setting [13]) it was 90%.

Regarding `Cc1cc2c(cc1C)N(C[C@H](O)[C@H](O)[C@H](O)COP(=O)(O)O)c1[nH]c(=O)[nH]c(=O)c1N2` [FMN-H2, leucoflavin phosphate], the survival number is recorded as 2 in experiment [1] (setting [14]); 6 in experiment [1] (setting [4]); 8 in experiment [1] (setting [5]); 3 in experiment [2] (setting [15]); 6 in experiment [2] (setting [16]); 8 in experiment [2] (setting [17]). The survival number turned out to be 0 in experiment [3] (setting [18]), 4 in experiment [3] (setting [19]), 6 in experiment [3] (setting [20]) and 9 in experiment [3] (setting [21]). The survival rate % is given as 20% in experiment [1] (setting [14]); 60% in experiment [1] (setting [4]); 80% in experiment [1] (setting [5]); 30% in experiment [2] (setting [15]); 60% in experiment [2] (setting [16]); 80% in experiment [2] (setting [17]). In addition, the survival rate % is 10% in experiment [3] (setting [18]), 40% in experiment [3] (setting [19]), 60% in experiment [3] (setting [20]) and 90% in experiment [3] (setting [21]). Besides, the “life-saving effect on endotoxin shock compared with riboflavin sodium phosphate” value in experiment [1] (mice, from Table 3) is on record as “about 2 fold”. Besides, in experiment [2] (mice, from Table 2), the “infection-protective effect against Staphylococcus aureus compared with riboflavin sodium phosphate” value is “about 10 fold”. The “infection-protective effect against E. coli compared with riboflavin sodium phosphate” value in experiment [3] (mice, from Table 1) is recorded as “about 10 fold”.
